Read-outs that look alike come from different tables or passages of the source.
Experiments:
dairy cattle [1] = details: cited from earlier work
dairy cattle [2] = test: Tolerability limits: intake limits of minerals for dairy cattle; format: in vivo
livestock rumens = test: Rumen propionate:acetate ratio and meat trans fat in livestock fed red algae; details: in vitro and in vivo testing
Source text: It is known that bromoform is safely and usefully degraded in anaerobic environments like livestock rumens where the enzyme methyl-coenzyme M reductase is present.

dairy cattle [3] = test: Methane intensity versus normalized bromoform intake (Asparagopsis quantity calculation); format: in vivo; details: regression constant
Protocol: In still another embodiment, a regression constant is determined. The regression constant relates the amount of bromoform required to achieve a set percentage of methane reduction per amount of neutral detergent fiber present in the animal's diet. Thus, the algorithm comprises the steps of: i) Determining the target methane reduction percentage and subsequently the target absolute reduction (g CH4/kg milk); ii) Determining cow's NDF intake, based on dry matter intake (DMI) and NDF proportion; iii) Determining the normalized bromoform concentration required (equivalent to the desired absolute reduction divided by the regression constant, where the regression constant is the Reduction in methane intensity (g CH4/kg milk) per unit normalized bromoform intake (mg/kg of NDF); iv) Multiplying by the NDF intake to determine the required bromoform concentration (mg) and v) Dividing by the bromoform concentration in that seaweed to determine amount of seaweed required.

[4] = In vivo fate of bromoform delivered from red macroalgae feed supplement; design: species or system livestock
[5] = dairy cattle, at the maximum allowable limit

Molecule	Maximum Allowable Component Intake Limit per Daily kg of DM Consumption (dairy cattle [1]; bovine, in vivo)	Intake for a Cow Consuming 20.14 kg DM/day (dairy cattle [2]; bovine, in vivo)	Maximum Allowable Component Intake Limit per Daily kg of DM Consumption (dairy cattle [1]; dairy cattle)	Intake for a Cow Consuming 20.14 kg DM/day (dairy cattle [2]; [5])	other results
[Al] [Aluminum]	1000 mg/kg DMI	20140 mg/day	–	–	–
[B] [Boron]	150 mg/kg DMI	3021 mg/day	–	–	–
[Cd] [Cadmium]	–	–	10 mg/kg DMI	201 mg/day	–
[Ca+2] [Calcium]	–	–	15000 mg/kg DMI	302100 mg/day	–
[Cr] [Chromium]	–	–	100 mg/kg DMI	2014 mg/day	–
[Co] [Cobalt]	–	–	25 mg/kg DMI	504 mg/day	–
[Fe] [Iron]	500 mg/kg DMI	10070 mg/day	–	–	–
[Pb] [Lead]	–	–	100 mg/kg DMI	2014 mg/day	–
[Mg+2] [Magnesium]	–	120840 mg/day	6000 mg/kg DMI	–	–
[Mn+2] [Manganese]	–	–	2000 mg/kg DMI	40280 mg/day	–
[Mo] [Molybdenum]	5 mg/kg DMI	101 mg/day	–	–	–
[K+] [Potassium]	20000 mg/kg DMI	402800 mg/day	–	–	–
[Se] [Selenium]	5 mg/kg DMI	–	–	101 mg/day	–
S1SSSSSSS1 [Sulfur]	–	–	3000 mg/kg DMI	60420 mg/day	–
[Zn] [Zinc]	–	–	500 mg/kg DMI	10070 mg/day	–
BrC(Br)Br [bromoform]	–	–	–	–	propionate:acetate ratios in livestock rumens (livestock rumens): increases the propionate:acetate ratios; Slope-Reduction in methane intensity (g CH4/kg milk) per normalized unit bromoform intake (mg/kg of NDF) (dairy cattle [3]): −0.049 g CH4/kg milk per mg/kg of NDF; absorption of bromoform into rumen wall or other organs [4]: not absorbed into the rumen wall, or other organs; bromoform in milk, meat or manure [4]: not found
Arsenic	–	–	30 mg/kg DMI	604 mg/day	–
Copper	40 mg/kg DMI	806 mg/day	–	–	–
Phosphorous	7000 mg/kg DMI	140980 mg/day	–	–	–
Sodium	–	–	84742 mg/kg DMI	1706704 mg/day	–
